Measurements from paper PMC9226124, “Macrocycle-stabilization of its interaction with 14-3-3 increases plasma membrane localization and activity of CFTR” (Nature Communications, 2022).
“And” between values parts separate entries of the source, which are not always exact repeats. Identical values can stand only once.

Assays:
[1] = biological target: T1, FITC-labeled CFTRpS753pS768 peptide (no 14-3-3) (Homo sapiens, UniProt P13569); experiment: Dose-response FP control assay in the absence of 14-3-3; format: binding; details: No 14-3-3
T1 construct: made in house; host or cells: synthetic peptide
T1 sequence (P13569 747-774 limits assumed): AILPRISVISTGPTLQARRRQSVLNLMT
Experimental: The 14-3-3β concentration used for the FP screening assay was 10 μM (dashed line). c HTS FP assay of the Cyclenium library. The samples contain 100 nM of FITC-CFTR_pS753pS768 peptide, 10 μM 14-3-3β, and 50 μM compound. FC-A (100 µM) was added as a positive control and DMSO as the negative control. Hit compounds are defined as a polarization increase which is higher than 20% of the response of FC-A. Red squares are compounds that appeared positive in the negative control without 14-3-3. […] Background polarization was subtracted from all values, n = 3 technical replicates. Compounds selected for further analysis are indicated with an asterisk. e Polarization in the absence of 14-3-3. […] Source data are provided as a Source Data file.
The FITC-labeled peptides were dissolved in FP buffer (10 mM HEPES pH 7.4, 150 mM NaCl, 0.1% Tween20, 1 mg/mL BSA) to a final concentration of 100 nM or 10 nM. For the dose-response assays, a 14-3-3β concentration of 10 μM was used while titrating the compounds in a two-times dilution series and, for the other assays, a dilution series of 14-3-3β was made with constant concentration of compound. The dilution series were made in 384 Corning Black Round Bottom well plates and their polarization was measured with a Tecan Infinite F500 plate reader (ex. = 485 nm, em. = 535 nm). The method of fitting of the curves was: “log(agonist) vs. response – Variable slope (four parameters)” from GraphPad Prism. The equation is Y = Bottom + (Top-Bottom)/(1 + 10^((LogEC50-X)*HillSlope)).

[2] = biological target: T2, 3HA-tagged F508del-CFTR in BHK cells (Homo sapiens, UniProt P13569, DEL508-508); experiment: CFTR trafficking assay (surface expression); format: cell-based, hamster; details: for F508del-CFTR surface expression signal (Fig5a): individual replicates; for F508del-CFTR trafficking towards the plasma membrane: BHK cells, 24 h, 10 μM compound
T2 construct: expressed in transfected cells; host or cells: baby hamster kidney (BHK) cells (Carlile et al. 2007)
T2 sequence (P13569 with tags, fused parts or gaps DEL508-508): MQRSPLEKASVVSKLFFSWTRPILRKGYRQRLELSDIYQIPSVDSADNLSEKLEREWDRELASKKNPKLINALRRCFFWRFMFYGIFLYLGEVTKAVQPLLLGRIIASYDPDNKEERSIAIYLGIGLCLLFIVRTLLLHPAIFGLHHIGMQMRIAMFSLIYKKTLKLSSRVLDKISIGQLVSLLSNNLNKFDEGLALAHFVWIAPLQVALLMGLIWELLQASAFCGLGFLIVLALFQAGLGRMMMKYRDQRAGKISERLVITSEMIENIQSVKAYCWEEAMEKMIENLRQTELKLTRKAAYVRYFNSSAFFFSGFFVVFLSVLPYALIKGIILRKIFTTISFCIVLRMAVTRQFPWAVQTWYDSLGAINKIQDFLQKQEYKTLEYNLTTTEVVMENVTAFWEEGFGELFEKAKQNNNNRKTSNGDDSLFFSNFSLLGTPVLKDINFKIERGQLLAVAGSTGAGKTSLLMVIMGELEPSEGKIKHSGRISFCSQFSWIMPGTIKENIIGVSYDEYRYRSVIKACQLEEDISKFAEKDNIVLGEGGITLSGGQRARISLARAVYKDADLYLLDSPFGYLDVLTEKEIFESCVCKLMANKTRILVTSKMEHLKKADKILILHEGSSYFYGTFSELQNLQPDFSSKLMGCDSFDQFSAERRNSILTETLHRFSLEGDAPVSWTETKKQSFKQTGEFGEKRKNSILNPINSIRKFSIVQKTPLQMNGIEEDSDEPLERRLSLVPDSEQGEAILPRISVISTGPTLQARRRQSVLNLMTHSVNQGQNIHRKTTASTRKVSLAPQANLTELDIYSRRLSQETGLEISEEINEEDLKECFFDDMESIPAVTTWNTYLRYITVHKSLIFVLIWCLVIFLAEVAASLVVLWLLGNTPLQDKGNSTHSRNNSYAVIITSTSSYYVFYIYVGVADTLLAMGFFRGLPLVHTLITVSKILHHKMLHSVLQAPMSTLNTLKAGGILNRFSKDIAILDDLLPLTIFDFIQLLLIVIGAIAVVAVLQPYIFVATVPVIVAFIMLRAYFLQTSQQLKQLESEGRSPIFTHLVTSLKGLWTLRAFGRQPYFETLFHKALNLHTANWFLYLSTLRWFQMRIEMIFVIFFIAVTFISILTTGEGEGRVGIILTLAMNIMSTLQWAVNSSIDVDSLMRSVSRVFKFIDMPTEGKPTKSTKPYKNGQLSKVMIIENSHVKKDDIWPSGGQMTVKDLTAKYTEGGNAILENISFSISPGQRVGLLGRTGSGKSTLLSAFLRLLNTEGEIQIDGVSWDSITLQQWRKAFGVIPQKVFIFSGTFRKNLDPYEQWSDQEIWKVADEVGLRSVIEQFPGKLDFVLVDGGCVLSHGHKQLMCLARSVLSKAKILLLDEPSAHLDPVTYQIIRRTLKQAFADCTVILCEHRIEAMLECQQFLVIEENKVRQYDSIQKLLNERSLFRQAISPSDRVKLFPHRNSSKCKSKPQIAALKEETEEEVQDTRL
Experimental: Twelve (12) validated hit compounds from the initial screening and focused validation library were tested for their effect on F508del-CFTR trafficking. Baby hamster kidney (BHK) cells expressing 3HA-tagged F508del-CFTR were treated for 24 h with 10 μM compound. After fixation of the cells, a combination of mouse monoclonal anti-HA antibody and anti-mouse IgG conjugated with FITC was used to detect F508del-CFTR that had trafficked to the plasma membrane as described previously. […] Additionally, a fluorescence imaging plate reader (FLIPR) Membrane Potential (FMP) assay was performed. This assay measures real-time membrane potential changes associated with ion channel activation and ion transporter proteins. F508del-CFTR expressing BHK cells were incubated for 24 h with 20 μM compound before treatment with the potentiator genistein, FMP dye, and activator forskolin. The fluorescence intensity is thus a measure for the function of the CFTR protein in the plasma membrane of these cells. The F508del-CFTR corrector VX-809 (lumacaftor) and the triple combination Trikafta® were used as positive controls in this assay. […] Another cellular assay was performed with the Ussing Chamber, which detects and quantifies transport of ions across epithelial tissue. F508del-CFTR expressing cystic fibrosis epithelial (CFBE) cells were treated for 18 h with 20 μM CY007424. After forskolin and genistein stimulation, the short-circuit current of the cells was measured.
Fig. 5 Cellular activity of macrocycles stabilizing the 14-3-3/CFTR PPI. a Surface expression of 3HA-tagged F508del-CFTR in BHK cells incubated for 24 h with 10 μM compound and treated with mouse monoclonal anti-HA antibody and anti-mouse IgG conjugated with FITC (n = 4 or n = 3 biological replicates, bars represent the mean). b, c FLIPR Membrane Potential (FMP) assay of F508del-CFTR expressing BHK cells treated for 24 h with the macrocycles (b, n = 6 biological replicates, bars represent the mean) or with CY007424 and/or VX-809 or Trikafta®, with and without CFTR inhibitor INH172 (c, n = 4 biological replicates, bars represent the mean). d Using chamber experiment of F508del-CFTR expressing CFBE cells treated for 18 h with CY007424, VX-809, or Trikafta® or in combinations. CFTR activity is assayed by measurement of short-circuit current of cells after stimulation by forskolin and the potentiator genistein (n = 3 or n = 6 biological replicates, bars represent the mean). Source data are provided as a Source Data file.
The trafficking assay was performed as previously described by Carlile et al.[21]. In brief, 3HA-tagged F508del-CFTR expressing baby hamster kidney (BHK) cells (cells earlier described by Carlile et. al. 2007)[21] were seeded in 96-well plates (Corning half area, black-sided, clear bottom) at 15,000 cells per well. After 24 h incubation at 37 °C, the cells were treated with 10 μM of compound for 24 h (final DMSO concentration 1% v/v). The cells were fixated with 4% paraformaldehyde, washed with PBS, and then blocked with fetal bovine serum (5% in PBS). Mouse monoclonal anti-HA antibody (H9658 Sigma, 1:150 dilution in PBS) was incubated overnight, and, after three washes with PBS, the background fluorescence was measured in a plate reader (488 nm excitation, 510 nm emission). The secondary antibody anti-mouse IgG conjugated with FITC (F5262 Sigma, 1:100 dilution in PBS) was incubated for 1 h, the cells were washed three times with PBS and analyzed in the plate reader again. Background fluorescence was subtracted from the signal, after which the signal was normalized to the DMSO control and wt-CFTR expressing cells.

N=C(N)NCCCC1NC(=O)C(CCC(N)=O)NC(=O)C(CCCNC(=N)N)NC(=O)C2CCCN2Cc2cccc(c2)-c2ccccc2CNC1=O (stereo not drawn) [CY007455]
FP signal ([1]; compound 476.8 pM): 5 | FP signal ([1]; compound 953.7 pM): 6 | FP signal ([1]; compound 1.90735e-9 M): 3 | FP signal ([1]; compound 3.8147e-9 M): 4 | FP signal ([1]; compound 7.6294e-9 M): 5 | FP signal ([1]; compound 1.52588e-8 M): 4 | FP signal ([1]; compound 3.05176e-8 M): 4 | FP signal ([1]; compound 6.10352e-8 M): 5 | FP signal ([1]; compound 1.2207e-7 M): 7 | FP signal ([1]; compound 2.44141e-7 M): 6 | FP signal ([1]; compound 4.88281e-7 M): 4 | FP signal ([1]; compound 9.76563e-7 M): 4 | FP signal ([1]; compound 1.95313e-6 M): 5 | FP signal ([1]; compound 3.90625e-6 M): 9 | FP signal ([1]; compound 7.8125e-6 M): 8 | FP signal ([1]; compound 1.5625e-5 M): 15 | FP signal ([1]; compound 3.125e-5 M): 26 | FP signal ([1]; compound 6.25e-5 M): 53 | FP signal ([1]; compound 0.000125 M): 107 | FP signal ([1]; compound 0.00025 M): 170 | FP signal ([1]; compound 0.0005 M): 209 | FP signal ([1]; compound 0.001 M): 244 | F508del-CFTR surface expression signal (Fig5a) [2]: 15.0857 and 101.743 and 158.532 and 44.3829

CN1CC(=O)NC(CCCNC(=N)N)C(=O)NC(CCC(N)=O)C(=O)NC(CCCNC(=N)N)C(=O)NCc2ccccc2-c2cccc(c2)C1 (stereo not drawn) [CY007491]
FP signal ([1]; compound 476.8 pM): 4 | FP signal ([1]; compound 953.7 pM): 5 | FP signal ([1]; compound 1.90735e-9 M): 5 | FP signal ([1]; compound 3.8147e-9 M): 6 | FP signal ([1]; compound 7.6294e-9 M): 4 | FP signal ([1]; compound 1.52588e-8 M): 6 | FP signal ([1]; compound 3.05176e-8 M): 3 | FP signal ([1]; compound 6.10352e-8 M): 5 | FP signal ([1]; compound 1.2207e-7 M): 8 | FP signal ([1]; compound 2.44141e-7 M): 6 | FP signal ([1]; compound 4.88281e-7 M): 5 | FP signal ([1]; compound 9.76563e-7 M): 5 | FP signal ([1]; compound 1.95313e-6 M): 6 | FP signal ([1]; compound 3.90625e-6 M): 7 | FP signal ([1]; compound 7.8125e-6 M): 7 | FP signal ([1]; compound 1.5625e-5 M): 9 | FP signal ([1]; compound 3.125e-5 M): 18 | FP signal ([1]; compound 6.25e-5 M): 35 | FP signal ([1]; compound 0.000125 M): 83 | FP signal ([1]; compound 0.00025 M): 142 | FP signal ([1]; compound 0.0005 M): 193 | FP signal ([1]; compound 0.001 M): 240 | F508del-CFTR trafficking towards the plasma membrane [2]: increase of F508del-CFTR trafficking towards the plasma membrane | F508del-CFTR surface expression signal (Fig5a) [2]: 1616.06 and 1494.72 and 1508.75 and 1545.64

NCCCCC1NCc2ccccc2Sc2ccccc2CNC(=O)C(Cc2cccc(Cl)c2)NC(=O)C(Cc2ccc(O)cc2)NC1=O (stereo not drawn) [CY007288]
FP signal ([1]; compound 476.8 pM): 6 | FP signal ([1]; compound 953.7 pM): 6 | FP signal ([1]; compound 1.90735e-9 M): 5 | FP signal ([1]; compound 3.8147e-9 M): 4 | FP signal ([1]; compound 7.6294e-9 M): 7 | FP signal ([1]; compound 1.52588e-8 M): 6 | FP signal ([1]; compound 3.05176e-8 M): 5 | FP signal ([1]; compound 6.10352e-8 M): 4 | FP signal ([1]; compound 1.2207e-7 M): 4 | FP signal ([1]; compound 2.44141e-7 M): 5 | FP signal ([1]; compound 4.88281e-7 M): 6 | FP signal ([1]; compound 9.76563e-7 M): 6 | FP signal ([1]; compound 1.95313e-6 M): 5 | FP signal ([1]; compound 3.90625e-6 M): 8 | FP signal ([1]; compound 7.8125e-6 M): 9 | FP signal ([1]; compound 1.5625e-5 M): 16 | FP signal ([1]; compound 3.125e-5 M): 30 | FP signal ([1]; compound 6.25e-5 M): 55 | FP signal ([1]; compound 0.000125 M): 97 | FP signal ([1]; compound 0.00025 M): 149 | FP signal ([1]; compound 0.0005 M): 194 | FP signal ([1]; compound 0.001 M): 224 | F508del-CFTR surface expression signal (Fig5a) [2]: 916.74 and 800.091 and 871.094 and 781.005

N=C(N)NCCCC1NCc2ccccc2Sc2ccccc2CNC(=O)C(Cc2ccc(O)cc2)NC(=O)C(CCCN)NC1=O (stereo not drawn) [CY007424]
FP signal ([1]; compound 476.8 pM): 4 | FP signal ([1]; compound 953.7 pM): 5 | FP signal ([1]; compound 1.90735e-9 M): 5 | FP signal ([1]; compound 3.8147e-9 M): 7 | FP signal ([1]; compound 7.6294e-9 M): 4 | FP signal ([1]; compound 1.52588e-8 M): 7 | FP signal ([1]; compound 3.05176e-8 M): 6 | FP signal ([1]; compound 6.10352e-8 M): 5 | FP signal ([1]; compound 1.2207e-7 M): 5 | FP signal ([1]; compound 2.44141e-7 M): 7 | FP signal ([1]; compound 4.88281e-7 M): 7 | FP signal ([1]; compound 9.76563e-7 M): 7 | FP signal ([1]; compound 1.95313e-6 M): 6 | FP signal ([1]; compound 3.90625e-6 M): 12 | FP signal ([1]; compound 7.8125e-6 M): 27 | FP signal ([1]; compound 1.5625e-5 M): 52 | FP signal ([1]; compound 3.125e-5 M): 122 | FP signal ([1]; compound 6.25e-5 M): 193 | FP signal ([1]; compound 0.000125 M): 244 | FP signal ([1]; compound 0.00025 M): 263 | FP signal ([1]; compound 0.0005 M): 257 | FP signal ([1]; compound 0.001 M): 271 | F508del-CFTR trafficking towards the plasma membrane [2]: strongest increase | F508del-CFTR surface expression signal (Fig5a) [2]: 1698.78 and 1774.35 and 1725.92 and 1889.17

N=C(N)NCCCC1NC(=O)C(CCC(N)=O)NC(=O)C(CCCNC(=N)N)NC(=O)C2CCCN2Cc2cccc(c2)-c2ccccc2CNC1=O (stereo not drawn) [CY007458]
FP signal ([1]; compound 476.8 pM): 6 | FP signal ([1]; compound 953.7 pM): 5 | FP signal ([1]; compound 1.90735e-9 M): 4 | FP signal ([1]; compound 3.8147e-9 M): 5 | FP signal ([1]; compound 7.6294e-9 M): 7 | FP signal ([1]; compound 1.52588e-8 M): 4 | FP signal ([1]; compound 3.05176e-8 M): 6 | FP signal ([1]; compound 6.10352e-8 M): 5 | FP signal ([1]; compound 1.2207e-7 M): 4 | FP signal ([1]; compound 2.44141e-7 M): 5 | FP signal ([1]; compound 4.88281e-7 M): 6 | FP signal ([1]; compound 9.76563e-7 M): 6 | FP signal ([1]; compound 1.95313e-6 M): 5 | FP signal ([1]; compound 3.90625e-6 M): 8 | FP signal ([1]; compound 7.8125e-6 M): 11 | FP signal ([1]; compound 1.5625e-5 M): 15 | FP signal ([1]; compound 3.125e-5 M): 33 | FP signal ([1]; compound 6.25e-5 M): 65 | FP signal ([1]; compound 0.000125 M): 124 | FP signal ([1]; compound 0.00025 M): 179 | FP signal ([1]; compound 0.0005 M): 221 | FP signal ([1]; compound 0.001 M): 252 | F508del-CFTR surface expression signal (Fig5a) [2]: 354.117 and 244.376 and 379.817 and 293.603
